Where two headings read alike, the source gives them in different places.
Tests used:
[1] = test system: CSF1R phosphorylation in THP-1 cells; assay: p-CSF1R ELISA assay in THP1 cells; type: cell-based; details: Homo sapiens, THP1 cells pre-treated one hour, stimulated with hCSF1, read-out: THP1 pCSFIR ELISA EC50
[2] = test system: Ba/F3_CSF-1R (stably expressing human CSF-1R kinase); assay: Cell proliferation assay, Ba/F3_CSF-1R; type: cell-based; details: BaF3, 72 h
[3] = test system: CSF1R phosphorylation in BV2 cells; assay: p-CSF1R Western blot assay in BV2 cells; type: cell-based, murine; details: Mus musculus, BV-2, 30 minutes pretreatment, CSF1 100 ng/mL 5 minutes
BV2 cells = assay: BV2 cell proliferation (Cell Titer Glo); type: cell-based, murine; details: Mus musculus, BV-2, CSF1 100 ng/mL, 72 h
[4] = test system: ERK1/2 phosphorylation in BV2 cells; assay: p-ERK1/2 Western blot assay in BV2 cells; type: cell-based, murine; details: Mus musculus, BV-2, 30 minutes pretreatment, CSF1 100 ng/mL 5 minutes
[5] = test system: CSF1R phosphorylation in THP-1 cells; assay: Inhibition of CSF1R phosphorylation in THP-1 monocytes (ELISA, Table D); type: cell-based, human; details: FIG. 6
Experimental: The THP-1 human monocyte-like cell line has intact CSF1R signaling that allows for the probing of the activation status of this pathway when stimulated by recombinant CSF. THP-1 cells were expanded in-vitro and pretreated with CSF1R inhibitors for an hour prior to stimulation with recombinant human M-CSF for 5 minutes. The cells were lysed, and the lysate was probed for activated CSF1R (pCSF1R) using ELISA. Using GraphPad Prism, a four-parameter logistic regression was applied to determine the potency of the CSF1R inhibitors.

[6] = Brain protein binding study; type: in vitro ADME; details: mouse brain homogenate, equilibrium dialysis 4 hours
Experimental: On the day of experiment, brain homogenate was thawed in water bath at room temperature and then incubated at 37° C. for 10 min before use. Pretreat the dialysis membrane according to the manufacturer's instructions: the dialysis membrane strips were soaked in ultra pure water at room temperature for approximately 1 hr. After that, each membrane strip that contains 2 membranes was separated and soaked in ethanol:water (20:80 v:v) for approximately 20 min, after which it was ready for use or was stored in the solution at 2-8° C. for up to 1 month. Prior to the experiment, the membrane was rinsed and soaked for 20 min in ultra pure water for use. Then working solutions (400 μM) of test compound and control compound were prepared. Aliquots of working solutions (3 μL) were spiked into blank matrix (597 μL) to achieve final concentrations and mixed thoroughly. Aliquots of 50 μL loading matrix containing test compound or control compound in triplicate was transferred to Sample Collection Plate, respectively. The samples were matched with opposite blank buffer to obtain a final volume of 100 μL with a volume ratio of matrix:Dialysis Buffer (1:1, v:v) in each well immediately. The stop solution was added to these T0 samples of test compound and control compound. The plate was sealed and shaked at 800 rpm for 10 min. Then these T0 samples were stored at 2-8° C. pending further process along with other post-dialysis samples. The dialysis instrument was assembled following manufacture's instructions. An aliquot of 100 μL of the loading matrix containing test compound or control compound was transferred to the donor side of each dialysis well in triplicate and 100 μL of the Dialysis Buffer was loaded to the receiver side of the well. Then the plate was rotated at approximately 100 rpm in a humidified incubator with 5% CO2 at 37±1° C. for 4 hours. At the end of the dialysis, aliquots of 50 μL samples from the buffer side and matrix side of the dialysis device were taken into new 96-well plates (Sample Collection Plates). An equal volume of opposite blank matrix (buffer or matrix) in each sample was added to reach a final volume of 100 μL with volume ratio of matrix:Dialysis Buffer at 1:1 (v:v) in each well. All samples were further processed by protein precipitation for LC/MS/MS analysis.

[7] = test system: microglia (Iba1+ cells) in cortex and hippocampus; assay: In vivo microglial depletion; design: species or system C57BL/6 mice; details: for Mean Cortical Ibal + Cell Density ± SEM (mm^−2) / Mean Hippocampal Ibal + Cell Density ± SEM (mm^−2): oral gavage BID 7 days; for Mean Cortical Ibal + Cell Density ± SEM (mm^−2): cortex; for Mean Hippocampal Ibal + Cell Density ± SEM (mm^−2): hippocampus
Experimental: To measure the in vivo pharmacodynamic effect, we quantified microglial depletion following repeated dosing of our compound in naive animals. Female C57BL/6 mice were given Example 134 (0, 50, 100, or 200 mg/kg/day, respectively) by oral gavage BID for 7 days. Following the final dose, mice were perfused with PBS followed by 4% paraformaldehyde (PFA). Brains were post-fixed overnight in 4% PFA and then transferred to 30% sucrose solution. Sagittal sections were sliced and stained for the microglial marker Iba1 and counterstained for DAPI. Brain sections were then imaged under 20× wide-field imaging, and the microglia density was quantified in the cortex and hippocampus.

[8] = Ba/F3_CSF-1R cells, 72 hours treatment, read-out: CSF-1R BaF3 EC50
[9] = read-out: CSF-1R BaF3 EC50 (nM)

## COc1ccc(COc2ncc(Cc3ccnc4cc(OC)cnc34)cc2OC)nc1 [Example 16, 3-methoxy-8-((5-methoxy-6-((5-methoxypyridin-2-yl)methoxy)pyridin-3-yl)methyl)-1,5-naphthyridine]
[1]
  EC50: 10.8 nM
[2]; [8]
  EC50: 61.7 nM
[3]
  EC50: 47.2 nM
BV2 cells
  EC50: 45.4 nM
[4]
  EC50: 21.4 nM
[5]
  CSF1R phosphorylation in CSF1R-stimulated THP-1 monocytes: dose-dependent inhibition of CSF1R phosphorylation
[6]
  BPB-mouse (Bound) (%): 98.10%

## COc1cnc2c(Cc3cnc(OCc4cc5n(n4)CCOC5)c(OC)c3)ccnc2c1 [Example 73, 2-(((3-methoxy-5-((7-methoxy-1,5-naphthyridin-4-yl)methyl)pyridin-2-yl)oxy)methyl)-6,7-dihydro-4H-pyrazolo[5,1-c][1,4]oxazine]
[2]; [9]
  EC50: 73.1 nM
[6]
  BPB-mouse (Bound) (%): 95.5%

## COc1ccc(COc2ncc(Cc3ccnc4cc(N5CCN(C)CC5)cnc34)cc2OC)nc1 [Example 116]
[2]; [8]
  EC50: 33.8 nM
[6]
  BPB-mouse (Bound) (%): 95.5%

## COc1ccc(COc2ncc(Cc3ccnc4cc(-c5ccn(C)n5)cnc34)cc2OC)nc1 [Example 134, 8-((5-methoxy-6-((5-methoxypyridin-2-yl)methoxy)pyridin-3-yl)methyl)-3-(1-methyl-1H-pyrazol-3-yl)-1,5-naphthyridine]
[2]; [9]
  EC50: 7.1 nM
[7]; 50 mg/kg
  decrease of microglia density in the cortex compared to vehicle control: > 22%
  Mean Cortical Ibal + Cell Density ± SEM (mm^−2): 63.6 ± 8.1 mm^−2
  Mean Hippocampal Ibal + Cell Density ± SEM (mm^−2): 73.3 ± 7.8 mm^−2
[7]; 100 mg/kg
  decrease of microglia density in the cortex compared to vehicle control: > 91%
  decrease of microglia density in the hippocampus relative to vehicle control: > 83%
  Mean Cortical Ibal + Cell Density ± SEM (mm^−2): 6.9 ± 1.2 mm^−2
  Mean Hippocampal Ibal + Cell Density ± SEM (mm^−2): 13.6 ± 2.2 mm^−2
[7]; 200 mg/kg
  decrease of microglia density in the cortex compared to vehicle control: > 98%
  decrease of microglia density in the hippocampus relative to vehicle control: > 93%
  Mean Cortical Ibal + Cell Density ± SEM (mm^−2): 1.5 ± 0.3 mm^−2
  Mean Hippocampal Ibal + Cell Density ± SEM (mm^−2): 5.6 ± 0.9 mm^−2
[6]
  BPB-mouse (Bound) (%): 98.8%

## COc1cnc2c(Cc3cnc(OCc4cc5n(n4)C[C@H](OC)C5)c(OC)c3)ccnc2c1 [Example 136, (R)-3-methoxy-8-((5-methoxy-6-((5-methoxy-5,6-dihydro-4H-pyrrolo[1,2-b]pyrazol-2-yl)methoxy)pyridin-3-yl)methyl)-1,5-naphthyridine]
[2]; [9]
  EC50: 66.2 nM
[6]
  BPB-mouse (Bound) (%): 97.3%

Reference: patent publication US20250360145A1, “CSF-1R INHIBITORS AND USES THEREOF” (Myrobalan Therapeutics, Inc., priority 2022, published 2025)
